How the values were obtained:
U87 cells = test: In vitro invasion assay, Matrigel-coated Boyden chambers, U87; assay type: cell-based, human; conditions: 24 h preincubation, 3 experiments, read-out: Mean IC50 inhibition of invasion through Matrigel matrix
Protocol: Tumor invasion of the basement membrane is a crucial step in the complex multistage process that leads to metastatic spread. Tumor cells cross the basement membrane as they initially invade the lymphatic or vascular beds during dissemination and as they penetrate their target tissues. […]
Invasion of cancer cells treated with [VO(SO4)(Me2-Phen)2] was assayed using Matrigel-coated Costar 24-well transwell cell culture chambers (“Boyden chambers”) with 8.0-μm-pore polycarbonate filter inserts as described previously (Narla et al., Clin Cancer Res, 4: 2463-2471, 1998; Ghosh et al., Anticancer Drug Des, 14: 403-410, 1999; Albini et al., J Cell Biol, 105: 1867-1872, 1987). […] The cells were trypsinized, washed twice with serum-free medium containing BSA, counted and resuspended in a serum-free medium at 1×10^5 cells/ml. […] The invasive cells that migrated to the lower side of the filter were fixed, stained with Hema-3 solution and counted under a light microscope. Five to 10 random fields per filter were counted to determine the invasive fraction. The invasive fractions of cells treated with [VO(SO4)(Me2-Phen)2] were compared to those of DMSO-treated control cells and the percent inhibition of invasiveness was determined. […]

[1] = system: U87 human glioblastoma xenografts; test: SCID mouse xenograft model of human glioblastoma; assay type: in vivo, SCID mice
Protocol: FIGS. 1A-1B illustrate the in vivo antitumor activity of the vanadium compound, [VO(SO4)(Me2-Phen)2] against human glioblastoma and breast cancer in SCID mice. The effects of daily treatment with [VO(SO4)(Me2-Phen)2] (10 mg/kg/day) or 5% DMSO in PBS (given five days per week for four weeks beginning the day after inoculation) on tumor growth and progression of glioblastoma (FIG. 1A) and breast cancer (FIG. 1B) are illustrated. Comparisons between groups were done using the log-rank test.
The animal protocols used in this study were approved by the Parker Hughes Institute Institutional Animal Care and Use Committee (IACUC). […]
The right and left hind legs of the SCID mice were inoculated subcutaneously with 1×10^6 U87 human glioblastoma and 1×10^6 MDA-MB-231 beast cancer cells, respectively, in 0.1 mL PBS. […] Mice were monitored daily for health status as well as tumor growth and were sacrificed if they became moribund, developed tumors which impeded their ability to attain food or water, or at the ed of the six-week observation period. Tumors were measured using Vernier calipers three times per week. Tumor volumes were calculated according to the following formula, as described previously (Narla et al., Clin Cancer Res., 4: 1405-14, 1998; Friedman et al., Cancer Res., 55: 2853-2857, 1995): Tumor volume=(Width)^2(Length)/2. […]

## Cc1ccnc2c1ccc1c(C)ccnc12.Cc1ccnc2c1ccc1c(C)ccnc12.O=S(=O)([O-])[O-].[O]=[V+2] [[VO(SO4)(Me2-Phen)2], bis(4,7-dimethyl-1,10-phenanthroline) sulfatooxovanadium (IV)]
U87 cells
  IC50: 780 ± 400 nM
[1]; U87, 1.5 months after inoculation, 10 mg/kg i.p., vehicle control 6928±653, P=0.007
  average size of tumor xenografts: 3199±646 mm^3
[1]; U87 xenografts, 10 mg/kg/dose i.p., five days per week for four weeks
  mice remaining alive and free of detectable tumors for >16 days: 40%
